{"source": "patent US20180249725A1", "about": "“ANTIMICROBIAL COMPOSITIONS” (priority 2015, published 2018)", "key": {"Listeria monocytogenes": {"test_system": "Listeria monocytogenes", "test": "Listeria monocytogenes growth in inoculated raw minced beef under modified atmosphere", "type": "cell-based", "settings": "for Measured effect on Listeria monocytogenes growth: [(log(CFU/mL) in meat treated with plant extracts) − (log(CFU/mL) control meat (without treatment))]: rosemary/hesperidin series added at 1.18% to minced beef, 8° C., 70% O2 and 30% CO2; for Expected effect on Listeria monocytogenes growth (difference of log(CFU/mL) to control meat): rosemary/hesperidin series, calculated from effects of the single extracts", "procedure": "In the course of the work leading to the present method and composition, mixtures of rosemary extract and of hesperidin or of Punica extract, in a number of varying concentration ratios were tested for antilisterial effectiveness using the classical microbiological methods. Bacterial enumeration in all here studied samples was performed on the Aloa medium according to the standardized method (NF EN ISO 11-290). The growth of Listeria monocytogenes was evaluated in meat without any antilisterial agent and without any plant extract (control). The data of listerial growth in a control meat are represented in FIG. 2. […] Following the meat manufacture, a batch of meat was sampled straight after the mincing process and transported in refrigerated conditions to the laboratory. […] Any further supplementation to the meat was conducted in such a laboratory. […] Plant extracts were in powder form and were added as such to the meat. To keep them as dry powders, plant extracts were supplemented with maltodextrin prior to drying process. […] Control meat pieces, without extract treatment, followed the same procedure. […] Packaged meat was stored in the dark for a stated amount of time. A series of experiments involving rosemary and hesperidin extracts, rosemary and Punica extracts, typical antilisterial compounds (Sodium lactate or Sodium acetate) and untreated control were conducted. Mixtures or alone extracts of rosemary and of hesperidin were added at 1.18% to the meat. […] Such analyses were conducted on the 0th, 6th and 9th day of storage. The growth of Listeria monocytogenes was evaluated in meat in refrigerated conditions for each extract or compound and for their combinations. […] Logarithmic values of Listerial growth (log CFU/mL) were calculated for each experiment and treatment. Differences of logarithmic values of Listerial growth (log CFU/mL) between the meat treated with plant extracts and the untreated control were calculated to yield a final result. The more negative value was obtained, the higher was the antilisterial effect of the extract or of the combination of extracts. […] (Guide pour la validation de méthodes d'essais microbiologiques et l'évaluation de leur incertitude de mesure dans les domaines de la microbiologie […]'environnement), Schweizerische Eidgenossenschaft, Confédération suisse, Département […]'économie, de la formation et de la recherche DEFR, Document No. 328, April 2013, Rev. 03)."}, "Listeria": {"test_system": "Listeria", "settings": "pure form; cited from earlier work"}, "[1]": {"settings": "stored in cold; applied at 300 ppm; cited from earlier work"}}, "note": "Marks after values point to notes of the source that are not given here."}
{"compound": "hesperidin", "values": [{"measurement": "Measured effect on Listeria monocytogenes growth: [(log(CFU/mL) in meat treated with plant extracts) − (log(CFU/mL) control meat (without treatment))]", "setting": "Listeria monocytogenes; after 6 days of growth", "result": "−0.09 log(CFU/mL)"}, {"measurement": "Measured effect on Listeria monocytogenes growth: [(log(CFU/mL) in meat treated with plant extracts) − (log(CFU/mL) control meat (without treatment))]", "setting": "Listeria monocytogenes; after 9 days of growth", "result": "−0.64 log(CFU/mL)"}]}
{"compound": "COc1ccc([C@@H]2CC(=O)c3c(O)cc(O[C@@H]4O[C@H](CO)[C@@H](O)[C@H](O)[C@H]4O[C@@H]4O[C@@H](C)[C@H](O)[C@@H](O)[C@H]4O)cc3O2)cc1O", "note": "[neohesperidin]", "values": [{"measurement": "Effect on Listerial growth in vitro", "setting": "Listeria", "result": "no effect"}]}
{"compound": "hesperidin [0.5H]", "values": [{"measurement": "Measured effect on Listeria monocytogenes growth: [(log(CFU/mL) in meat treated with plant extracts) − (log(CFU/mL) control meat (without treatment))]", "setting": "Listeria monocytogenes; after 6 days of growth", "result": "−0.37* log(CFU/mL)"}, {"measurement": "Measured effect on Listeria monocytogenes growth: [(log(CFU/mL) in meat treated with plant extracts) − (log(CFU/mL) control meat (without treatment))]", "setting": "Listeria monocytogenes; after 9 days of growth", "result": "−0.71* log(CFU/mL)"}, {"measurement": "Expected effect on Listeria monocytogenes growth (difference of log(CFU/mL) to control meat)", "setting": "Listeria monocytogenes; after 6 days of growth", "result": "−0.045 log(CFU/mL)"}, {"measurement": "Expected effect on Listeria monocytogenes growth (difference of log(CFU/mL) to control meat)", "setting": "Listeria monocytogenes; after 9 days of growth", "result": "−0.32 log(CFU/mL)"}]}
{"compound": "COc1ccc([C@@H]2CC(=O)c3c(O)cc(O[C@@H]4O[C@H](CO[C@@H]5O[C@@H](C)[C@H](O)[C@@H](O)[C@H]5O)[C@@H](O)[C@H](O)[C@H]4O)cc3O2)cc1O", "note": "[Hesperidin]", "values": [{"measurement": "Extract proportion in combination that provide antilisterial response in meat", "setting": "Listeria monocytogenes; surface response methodology (FIG. 4), response difference to control <0.5 log(CFU/mL) as printed, total added to meat not above 1.18%", "result": "0.5-48.0%"}]}
{"compound": "O=c1oc2c(O)c(O)cc3c(=O)oc4c(O)c(O)cc1c4c23", "note": "[ellagic acid]", "values": [{"measurement": "Antimicrobial effect on raw beef MAP meat", "setting": "[1]", "result": "no antimicrobial effect"}]}
